The results in this text go back to US20050271606A1, “Composition for treating inflammation which contains zinc pyrrolidonecarboxylate” (priority 2004, published 2005).

Common to all, as to assay type: cell-based
In one assay the test system is AP-1. Briefly: Action on AP-1 activation by ultraviolet ray (UVA) in human dermal fibroblasts, activated AP-1 in nucleoprotein (gel shift or ELISA assay). Conditions: 50 μM, 18 h incubation, UVA 20 J/cm^2. On the procedure: (§1) The fibroblasts were irradiated with ultraviolet rays (UVA: 20 J/cm^2) using Dermaray M-DMR-80 (manufactured by Toshiba Iryoyohin). After 4 to 5 hours, the fibroblasts were recovered and the nucleoprotein was extracted therefrom by a conventional method. The resulting nucleoprotein was subjected to a gel shift assay or an ELISA assay (TransAM Kit, ACTIVE MOTIF) to detect activated AP-1. When applying the gel shift assay, the radioactive value of the AP-1 band was measured using a bio-imaging analyzer BAS 2000 (manufactured by Fuji Photo Film).
The suppression rate of the test compound for AP-1 activation was calculated from the following formula. Suppression Rate for AP-1 Activation (%)={1−(A1−A3)/(A2−A3)}×100 A1: radioactive value of AP-1 band when a test compound was added A2: radioactive value of AP-1 band when no test compound was added A3: radioactive value of AP-1 band when no test compound was added and no irradiation with ultraviolet rays
Background: In EMSA bound probe runs differently from free probe, usually more slowly.

In a further assay the test system is AP-1 (c-Jun). Nature of the assay: AP-1 activation by ultraviolet ray in human dermal fibroblasts, ELISA assay (TransAM Kit), quantity of c-Jun. Conditions: 18 h incubation, UVA 20 J/cm^2, ELISA. The procedure:
as §1
(§2) An ELISA assay was performed in accordance with the manual of the kit used, and the activation of AP-1 was obtained by determination of the quantity of c-Jun or c-Fos.
(§3) The suppression rate of AP-1 (c-Jun or c-Fos) activation of a test compound was calculated from the following formula. Suppression Rate for AP-1 Activation (%)={1−{B1−B3)/(B2−B3)}×100 B1: 450 nm absorbance when a test compound was added (per nucleoprotein) B2: 450 nm absorbance when no test compound was added (per nucleoprotein) B3: 450 nm absorbance when no test compound was added and no ultraviolet ray was irradiated (per nucleoprotein)
(An ELISA detects its analyte on a solid surface through an enzyme-linked reagent.)

In the next assay the test system is AP-1 (c-Fos). Nature of the assay: AP-1 activation by ultraviolet ray in human dermal fibroblasts, ELISA assay (TransAM Kit), quantity of c-Fos. Conditions: 18 h incubation, UVA 20 J/cm^2, ELISA. On the procedure: as §1, §2, §3

Consider `O=C1CCC(C(=O)[O-])N1.O=C1CCC(C(=O)[O-])N1.[Zn+2]` (racemic) [Zinc DL-Pyrrolidonecarboxylate], for which the “Suppressing Rate (%) for AP-1 activation” value in the assay on AP-1 is 38.8%.
Same read-out and setting: as for Zinc Laurate, the figure is 9.1%.
On to `O=C1CC[C@@H](C(=O)[O-])N1.O=C1CC[C@@H](C(=O)[O-])N1.[Zn+2]` [Zinc L-Pyrrolidonecarboxylate], for which the “Suppressing Rate (%) (c-Jun)” value amounted to 109.5% in the assay with AP-1 (c-Jun) (10 μM) and 106.7% with AP-1 (c-Jun) (100 μM). Also, the “Suppressing Rate (%) (c-FOS)” value in the assay with AP-1 (c-Fos) (10 μM) was 69.3%; in the assay with AP-1 (c-Fos) (100 μM), 77.0%.
For `NCC(=O)[O-].NCC(=O)[O-].[Zn+2]` [Zinc Salt of Glycine], the “Suppressing Rate (%) for AP-1 activation” value with AP-1 is −72.8%.
